What all share (type): in vivo
For assay [1], the system named is Avena fatua (wild oats, AVEFA). The experiment in a line: Field trial, percent visual weed control of wild oats. The protocol: (§1) These trials were conducted under field conditions in western Canada. The trials were designed as split-block, factorial designs with timing (spring vs. fall), Authority 480 (sulfentrazone) rate (0, 52 or 105 g ai/ha), Kerb™ SC (propyzamide) rate (0, 450 or 900 g ai/ha) as the main factors and Edge™ Granular (ethalfluralin) application (0 or 1100 g ai/ha) as the split-block factor. Edge™ was applied to test plots at a rate of 1100 g ai/ha using a granular applicator in the fall of 2011 (17 October to 9 November). Authority 480 and Kerb™ SC treatments were applied to test plots either in the fall prior to or after Edge™ application (17 October to 3 November), or in the spring of 2012 (24 April to 5 May). An untreated control was also included in each trial. Following herbicide treatment application in the spring of 2012, lentils were seeded or field peas were seeded into plots. Weed efficacy assessments were taken at 9-15 days after the spring application (DAA2) for an initial evaluation, 33 DAA2 for an early evaluation, 48-52 DAA2 for a mid evaluation, and 77-85 DAA2 for a late evaluation. The trial sites had naturally occurring populations of weeds. The weed spectrum included, but was not limited to, Avena fatua (wild oats, AVEFA), Hordeum jubatum (foxtail barley, HORJU), Kochia scoparia (kochia, KCHSC) and Sinapis arvensis L. (wild mustard, SINAR).
(§2) The treated plots and control plots were rated blind at various intervals after application. Ratings were based of Percent (%) Visual weed control, where 0 corresponds to no injury and 100 corresponds to complete kill.
(§3) Colby's equation was used to determine the herbicidal effects expected from the mixtures (Colby, S. R. Calculation of the synergistic and antagonistic response of herbicide combinations. Weeds 1967, 15, 20-22).
(§4) The following equation was used to calculate the expected activity of mixtures containing two active ingredients, A and B:
(§5) Expected=A+B−(A×B/100) • A=observed efficacy of active ingredient A at the same concentration as used in the mixture; • B=observed efficacy of active ingredient B at the same concentration as used in the mixture.
(§6) For mixtures containing three herbicidal active ingredients, the following equation can be used to calculate the expected activity:
(§7) [formula] • A=observed efficacy of a first active ingredient at the same concentration as used in the mixture; • B=observed efficacy of a second active ingredient B at the same concentration as used in the mixture; • C=observed efficacy of a third active ingredient C at the same concentration as used in the mixture.

Assay [2] has as its system Sinapis arvensis L. (wild mustard, SINAR). Put plainly: Field trial, percent visual weed control of wild mustard. The protocol:
as §1, §2, §3, §4, §5, §6, §7

In assay [3] the test system is Kochia scoparia (kochia, KCHSC). The experiment in a line: Field trial, percent visual weed control of kochia. The protocol: as §1, §2, §3, §4, §5, §6, §7
For assay [4], the system named is Hordeum jubatum (foxtail barley, HORJU). The experiment in a line: Field trial, percent visual weed control of foxtail barley. The protocol:
as §1, §2, §3, §4, §5, §6, §7

Where [5] appears, read: Table 3 (Spring applications), ethalfluralin 1100 g ai/ha (Edge Granular applied in the fall).
[6] abbreviates: Table 4, Fall application, ethalfluralin 1100 g ai/ha.
The mark [7] stands for this setting: Table 2, Spring application, propyzamide 450 g ai/ha.
Where [8] appears, read: Table 3, Spring application, propyzamide 450 g ai/ha.
Setting [9] is: Table 1, Fall application, propyzamide 900 g ai/ha.
Setting [10] is: Table 1, Fall application, propyzamide 450 g ai/ha.
Where [11] appears, read: Table 2, Spring application, propyzamide 900 g ai/ha.
Where [12] appears, read: Table 2, Spring application, sulfentrazone 52 g ai/ha.
The mark [13] stands for this setting: Table 1, Fall application, sulfentrazone 52 g ai/ha.
[14] abbreviates: Table 3, Spring application, sulfentrazone 52 g ai/ha.
Where [15] appears, read: Table 4, Fall application, sulfentrazone 52 g ai/ha.
Setting [16] is: Table 1, Fall application, sulfentrazone 105 g ai/ha.

The text below walks through data of patent US20150057154A1, “HERBICIDAL COMPOSITIONS COMPRISING SULFENTRAZONE plus PROPYZAMIDE AND SULFENTRAZONE PLUS PROPYZAMIDE PLUS ETHALFLURALIN” (Dow AgroSciences LLC, priority 2013, published 2015).

For the compound `C=C(C)CN(CC)c1c([N+](=O)[O-])cc(C(F)(F)F)cc1[N+](=O)[O-]` [Ethalfluralin, N-ethyl-N-(2-methyl-2-propen-1-yl)-2,6-dinitro-4-(trifluoromethyl)benzenamine], the “AVEFA Obs (Observed percent weed control)” value in assay [1] (setting [5]) came out at 49%. Moreover, the “SINAR Obs (Observed percent weed control)” value in assay [2] (setting [5]) and in assay [2] (setting [6]) was 0% throughout. Also, the “KCHSC Obs (Observed percent weed control)” value in assay [3] (setting [5]) and in assay [3] (setting [6]) was 55% each time.

As for `C#CC(C)(C)NC(=O)c1cc(Cl)cc(Cl)c1` [Propyzamide, 3,5-dichloro-N-(1,1-dimethyl-2-propyn-1-yl)benzamide], the “AVEFA Obs (Observed percent weed control)” value in assay [1] (setting [7]) and in assay [1] (setting [8]) was 30% throughout. The “SINAR Obs (Observed percent weed control)” value came out at 38% in assay [2] (setting [9]); 10% in assay [2] (Table 3, Spring application, propyzamide 900 g ai/ha); 38% in assay [2] (Table 4, Fall application, propyzamide 900 g ai/ha). Besides, the “HORJU Obs (Observed percent weed control)” value is reported as 18% in assay [4] (setting [10]), 59% in assay [4] (setting [9]), 30% in assay [4] (setting [7]) and 68% in assay [4] (setting [11]). Also, the “KCHSC Obs (Observed percent weed control)” value was determined as 0% in assay [3] (setting [10]); 65% in assay [3] (setting [9]); 0% in assay [3] (setting [11]); 17% in assay [3] (setting [8]); 0% in assay [3] (Table 4, Fall application, propyzamide 450 g ai/ha).

On to `Cc1nn(-c2cc(NS(C)(=O)=O)c(Cl)cc2Cl)c(=O)n1C(F)F` [Sulfentrazone, N-[2,4-dichloro-5-[4-(difluoromethyl)-4,5-dihydro-3-methyl-5-oxo-1H-1,2,4-triazol-1-yl]phenyl]methanesulfonamide], for which the “AVEFA Obs (Observed percent weed control)” value in assay [1] (setting [12]) is 0%; in assay [1] (Table 2, Spring application, sulfentrazone 105 g ai/ha), 15%; in assay [1] (Table 3, Spring application, sulfentrazone 105 g ai/ha) it was 0%. Also, the “SINAR Obs (Observed percent weed control)” value in assay [2] (setting [13]) was determined as 38%; in assay [2] (setting [14]), 53%; in assay [2] (setting [15]) it was 25%. Besides, the entries for the “HORJU Obs (Observed percent weed control)” value in assay [4] (setting [13]), in assay [4] (setting [16]) and in assay [4] (setting [12]) were 15%, 28% and 15%, respectively. Besides, the “KCHSC Obs (Observed percent weed control)” value in assay [3] (setting [13]) was determined as 30%; in assay [3] (setting [16]), 40%; in assay [3] (setting [12]), 20%; in assay [3] (setting [14]), 20%; in assay [3] (setting [15]), 30%.
